Reference: ChEMBL document CHEMBL1201862, “PubChem BioAssay data set” (2004)
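Dose response: 5 concentrations. Exposure: 48 h. Format: 96-well plates. Endpoint: linear interpolation; highest concentration if not reached. GI50 marks 50% less growth.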 The source made the active and inactive calls. Rule as the data show it: active = GI50 up to about 1.1 µM and inactive = higher.

Key:
Assay in all cases: DTP human tumour cell line panel, 48 h
HOP-62 = test system: HOP-62
OVCAR-5 = test system: OVCAR-5
OVCAR-8 = test system: OVCAR-8
SNB-78 = test system: SNB-78
TK-10 = test system: TK-10
SK-MEL-28 = test system: SK-MEL-28
HL-60 = test system: HL-60
786-0 = test system: 786-0
RXF 393 = test system: RXF 393
HCT-116 = test system: HCT-116
M14 = test system: M14
CCRF-CEM = test system: CCRF-CEM
UACC-257 = test system: UACC-257
SN12C = test system: SN12C
SNB-19 = test system: SNB-19
UO-31 = test system: UO-31
SW-620 = test system: SW-620
SK-MEL-2 = test system: SK-MEL-2
ACHN = test system: ACHN
RPMI-8226 = test system: RPMI-8226
SK-MEL-5 = test system: SK-MEL-5
KM12 = test system: KM12
A498 = test system: A498
HCC 2998 = test system: HCC 2998
SR = test system: SR
DMS-273 = test system: DMS-273
SF-539 = test system: SF-539
LXFL 529 = test system: LXFL 529
KM-20L2 = test system: KM-20L2
SF-295 = test system: SF-295
M19-MEL = test system: M19-MEL
MOLT-4 = test system: MOLT-4
SF-268 = test system: SF-268
SK-OV-3 = test system: SK-OV-3
NCI-H522 = test system: NCI-H522
UACC-62 = test system: UACC-62
NCI-H23 = test system: NCI-H23
HCT-15 = test system: HCT-15
Malme-3M = test system: Malme-3M
XF498 = test system: XF498
IGROV-1 = test system: IGROV-1
K562 = test system: K562
OVCAR-3 = test system: OVCAR-3
NCI-H460 = test system: NCI-H460
DLD-1 = test system: DLD-1
A549 = test system: A549
U-251 = test system: U-251
LOX IMVI = test system: LOX IMVI
DMS-114 = test system: DMS-114
EKVX = test system: EKVX
HOP-18 = test system: HOP-18
NCI-H226 = test system: NCI-H226
HOP-92 = test system: HOP-92
CAKI-1 = test system: CAKI-1
NCI/ADR-RES = test system: NCI/ADR-RES
MCF7 = test system: MCF7
HT-29 = test system: HT-29
OVCAR-4 = test system: OVCAR-4
SNB-75 = test system: SNB-75
COLO 205 = test system: COLO 205

Cc1ccc(C2NC(=O)c3ccccc3N2)s1 (stereo not drawn)
GI50 (HOP-62): 4.37 µM (inactive) | GI50 (OVCAR-5): 10 µM (inactive) | GI50 (OVCAR-8): 8.43 µM (inactive) | GI50 (SNB-78): 33.2 µM (inactive) | GI50 (TK-10): > 100 µM (inactive) | GI50 (SK-MEL-28): 5.81 µM (inactive) | GI50 (HL-60): 2.92 µM (inactive) | GI50 (786-0): 5.69 µM (inactive) | GI50 (RXF 393): 5.86 µM (inactive) | GI50 (HCT-116): 6.31 µM (inactive) | GI50 (M14): 8.05 µM (inactive) | GI50 (CCRF-CEM): 3.27 µM (inactive) | GI50 (UACC-257): 2.32 µM (inactive) | GI50 (SN12C): 4.79 µM (inactive) | GI50 (SNB-19): 59.6 µM (inactive) | GI50 (UO-31): 7.38 µM (inactive) | GI50 (SW-620): 2.94 µM (inactive) | GI50 (SK-MEL-2): 3.75 µM (inactive) | GI50 (ACHN): > 100 µM (inactive) | GI50 (RPMI-8226): 4.69 µM (inactive) | GI50 (SK-MEL-5): 2.88 µM (inactive) | GI50 (KM12): 4.61 µM (inactive) | GI50 (A498): 6.78 µM (inactive) | GI50 (HCC 2998): 7.05 µM (inactive) | GI50 (SR): 8.3 µM (inactive) | GI50 (DMS-273): 4.25 µM (inactive) | GI50 (SF-539): 3.28 µM (inactive) | GI50 (LXFL 529): 7.64 µM (inactive) | GI50 (KM-20L2): 4.55 µM (inactive) | GI50 (SF-295): 2.37 µM (inactive) | GI50 (M19-MEL): 6.12 µM (inactive) | GI50 (MOLT-4): 3.07 µM (inactive) | GI50 (SF-268): 8 µM (inactive) | GI50 (SK-OV-3): 5.4 µM (inactive) | GI50 (NCI-H522): 4.26 µM (inactive) | GI50 (UACC-62): 5.51 µM (inactive) | GI50 (NCI-H23): 4.36 µM (inactive) | GI50 (HCT-15): 4.09 µM | GI50 (Malme-3M): 4.8 µM (inactive) | GI50 (XF498): 3.21 µM (inactive) | GI50 (IGROV-1): 6.67 µM (inactive) | GI50 (K562): 3.2 µM (inactive) | GI50 (OVCAR-3): 3.8 µM (inactive) | GI50 (NCI-H460): 4.25 µM (inactive) | GI50 (DLD-1): 5.02 µM (inactive) | GI50 (A549): 8.83 µM (inactive) | GI50 (U-251): 4.6 µM (inactive) | GI50 (LOX IMVI): 6.55 µM (inactive) | GI50 (DMS-114): 5.21 µM (inactive) | GI50 (EKVX): > 100 µM (inactive)

C=CC(=O)NC(=N)NC#N
GI50 (HOP-62): 210 µM (inactive) | GI50 (OVCAR-5): 177 µM (inactive) | GI50 (HOP-18): 148 µM (inactive) | GI50 (OVCAR-8): 214 µM (inactive) | GI50 (SNB-78): 179 µM (inactive) | GI50 (TK-10): 142 µM (inactive) | GI50 (SK-MEL-28): 131 µM (inactive) | GI50 (HL-60): 26.9 µM (inactive) | GI50 (786-0): 163 µM (inactive) | GI50 (RXF 393): > 73.5 µM (inactive) | GI50 (NCI-H226): 200 µM (inactive) | GI50 (HCT-116): 189 µM (inactive) | GI50 (M14): 151 µM (inactive) | GI50 (CCRF-CEM): 22.6 µM (inactive) | GI50 (HOP-92): > 39.4 µM (inactive) | GI50 (UACC-257): 125 µM (inactive) | GI50 (SN12C): 157 µM (inactive) | GI50 (SNB-19): 363 µM (inactive) | GI50 (UO-31): 176 µM (inactive) | GI50 (SW-620): > 76.2 µM (inactive) | GI50 (SK-MEL-2): > 100 µM (inactive) | GI50 (CAKI-1): 69 µM (inactive) | GI50 (NCI/ADR-RES): > 100 µM (inactive) | GI50 (ACHN): 121 µM (inactive) | GI50 (MCF7): > 68.7 µM (inactive) | GI50 (RPMI-8226): 22 µM (inactive) | GI50 (SK-MEL-5): 165 µM (inactive) | GI50 (KM12): > 100 µM (inactive) | GI50 (A498): 152 µM (inactive) | GI50 (HCC 2998): 182 µM (inactive) | GI50 (SR): 150 µM (inactive) | GI50 (HT-29): 189 µM (inactive) | GI50 (SF-539): 164 µM (inactive) | GI50 (LXFL 529): 124 µM (inactive) | GI50 (KM-20L2): 150 µM (inactive) | GI50 (SF-295): 313 µM (inactive) | GI50 (M19-MEL): 140 µM (inactive) | GI50 (SF-268): 121 µM (inactive) | GI50 (SK-OV-3): 175 µM (inactive) | GI50 (NCI-H522): 18 µM (inactive) | GI50 (UACC-62): 157 µM (inactive) | GI50 (NCI-H23): 188 µM (inactive) | GI50 (HCT-15): 120 µM | GI50 (Malme-3M): 145 µM (inactive) | GI50 (XF498): 97.3 µM (inactive) | GI50 (IGROV-1): 181 µM (inactive) | GI50 (K562): 35.9 µM (inactive) | GI50 (OVCAR-4): 168 µM (inactive) | GI50 (SNB-75): 155 µM (inactive) | GI50 (OVCAR-3): 169 µM (inactive) | GI50 (COLO 205): 149 µM (inactive) | GI50 (NCI-H460): 176 µM (inactive) | GI50 (DLD-1): 153 µM (inactive) | GI50 (A549): 195 µM (inactive) | GI50 (U-251): 158 µM (inactive) | GI50 (LOX IMVI): > 74.6 µM (inactive) | GI50 (DMS-114): 114 µM (inactive) | GI50 (EKVX): > 100 µM (inactive)
